Test system: Mice (C57/B6J) fed with high-fat food
Source text: Mice (C57/B6J, 8 weeks old male) were divided into 4 groups (5 animals each), and the first group (DB) was freely fed with ordinary food (CertifiedDiet “MF” manufactured by Oriental Yeast Co., ltd.). The second group (HFD) was freely fed with high-fat food (High Fat Diet 32, manufactured by CLEA Japan, Inc.), […].
When the mouse was 20 weeks old, the body weight, the liver weight, the serum aspartate aminotransferase (AST), the alanine aminotransferase (ALT), the serum triglyceride (TG), the free fatty acid value (FFA) and the total cholesterol value (T-cho) were measured.

[1] = HFD6 (6 mg/kg/day) and HFD60 (60 mg/kg/day) groups in comparison to HFD group, 20 weeks old
[2] = high-fat food mice, glutathione in water 6 or 60 mg/kg/day, 20 weeks old

`N[C@@H](CCC(=O)N[C@@H](CS)C(=O)NCC(=O)O)C(=O)O` [glutathione] was tested, and the “FFA (free fatty acid value)” value [1] was “significant decrease”, the “T-cho (total cholesterol value)” value [1] was “significant decrease” and the “TG (triglyceride value)” value [1] was “significant decrease”. For the same molecule, the “serum AST, ALT, TG, FFA and T-cho: dose dependence” value (HFD6 group compared with HFD60 group) was “decrease dependently on the concentration”, the “consumption amounts of feed and water” value (all of the groups (DB, HFD, HFD6, HFD60)) was “no significant difference” and the “deposition of fat on the liver by high-fat food” value (high-fat food mice, glutathione 6 or 60 mg/kg/day) was “suppressed”. For the same molecule, the body weight [2] was “decrease of the body weight was recognized”, the liver weight [2] was “decreased dependently on the concentration” and the “ratio of liver weight/body weight” value [2] was “decrease of the body weight ratio was also recognized”.

Reference: patent US20180050078A1, “COMPOSITION FOR IMPROVING OR PREVENTING NONALCOHOLIC FATTY LIVER” (KOHJIN LIFE SCIENCES CO., LTD., priority 2015, published 2018)
